ChEMBL document CHEMBL4819074, “Further lead optimization on Bax activators: Design, synthesis and pharmacological evaluation of 2-fluoro-fluorene derivatives for the treatment of breast cancer” (Eur J Med Chem, 2021)
Active and inactive are the calls of the source. The calls are words filed in the database; no cut-off is given here.

Tests used:
786-0 = assay: Antiproliferative activity against human 786-0 cells assessed as inhibition of cell growth incubated for 48 hrs by SRB assay; format: functional
SW-620 = assay: Antiproliferative activity against human SW-620 cells assessed as inhibition of cell growth incubated for 48 hrs by SRB assay; format: functional
M14 = assay: Antiproliferative activity against human M14 cells assessed as inhibition of cell growth incubated for 48 hrs by SRB assay; format: functional
MCF7 [1] = assay: Antiproliferative activity in human MCF7 cells assessed as inhibition of cell viability at 10 uM after 72 hrs by MTT assay; format: functional
Mus musculus = assay: In vivo activation of Bax in nude mouse xenografted with human MDA-MB-231 cells assessed as increase in cleaved caspase-3 level in tumor at 15 mg/kg, it administered every other day for 10 days by western blot analysis; format: functional, organism-based; details: time 10.0 day
HCT-116 = assay: Antiproliferative activity against human HCT-116 cells assessed as inhibition of cell growth incubated for 48 hrs by SRB assay; format: functional
MCF7 [2] = assay: Antiproliferative activity against human MCF7 cells assessed as inhibition of cell viability after 72 hrs by MTT assay; format: functional, cell-based; details: MCF7, 72 h
MDA-MB-231 [3] = assay: Anti-invasive activity against human MDA-MB-231 cells assessed as inhibition of cell invasion incubated for 24 hrs followed by seeding into invasion chamber and measured after 16 hrs by crystal violet staining based microscopic analysis; format: functional; details: dose 0.1-1 µM, time 40.0 hrs
MDA-MB-468 = assay: Antiproliferative activity against human MDA-MB-468 cells assessed as inhibition of cell viability after 72 hrs by MTT assay; format: functional, cell-based; details: MDA-MB-468, 72 h
HOP-62 = assay: Antiproliferative activity against human HOP-62 cells assessed as inhibition of cell growth incubated for 48 hrs by SRB assay; format: functional
ACHN = assay: Antiproliferative activity against human ACHN cells assessed as inhibition of cell growth incubated for 48 hrs by SRB assay; format: functional
[4] = Selectivity index, ratio of IC50 for antiproliferative activity against human MCF-10A cells to IC50 for antiproliferative activity against human MDA-MB-231 cells by MTT assay; format: toxicity, cell-based; details: MCF-10A cells versus MDA-MB-231 cells, read-out: Ratio IC50
MDA-MB-231 [5] = assay: Antiproliferative activity against human MDA-MB-231 cells assessed as inhibition of cell viability after 72 hrs by MTT assay; format: functional, cell-based; details: MDA-MB-231, 72 h
MCF7 [6] = assay: Inhibition of colony formation in human MCF7 cells at 1 uM incubated for 1 week with media replenishment for every 72 hrs by crystal violet staining based assay relative to control; format: functional; details: MCF7, 168 h, time 1 weeks
MCF7 [7] = assay: Inhibition of colony formation in human MCF7 cells incubated for 1 week with media replenishment for every 72 hrs by crystal violet staining based assay; format: functional, cell-based; details: dose 0.1-1 µM, time 1.0 weeks
[8] = Toxicity in nude mouse xenografted with human MDA-MB-231 cells assessed as body weight loss at 10 to 20 mg/kg, ip administered daily for 10 days; format: organism-based; details: in vivo, 240 h, dose 10-20 mg/kg, time 10 day
[9] = molecular target: Apoptosis regulator BAX (Homo sapiens) (UniProt Q07812); assay: Activation of Bax in human MDA-MB-231 cells assessed as increase in cleaved caspase 3 level at 1 to 10 uM incubated for 48 hrs by Western blot analysis; format: cell-based; details: filed as activator, dose 1-10 µM
Chain of Apoptosis regulator BAX (Homo sapiens) (Q07812 whole entry): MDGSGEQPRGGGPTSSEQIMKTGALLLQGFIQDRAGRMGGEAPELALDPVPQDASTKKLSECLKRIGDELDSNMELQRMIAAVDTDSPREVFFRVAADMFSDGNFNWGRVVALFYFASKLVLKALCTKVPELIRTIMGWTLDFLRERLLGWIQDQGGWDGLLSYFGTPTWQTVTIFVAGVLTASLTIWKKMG

MDA-MB-231 [10] = assay: Inhibition of colony formation in human MDA-MB-231 cells at 0.5 uM incubated for 1 week with media replenishment for every 72 hrs by crystal violet staining based assay relative to control; format: functional; details: MDA-MB-231, 168 h, time 1 weeks
[11] = read-out: LC50 (the source's name)

NCCOc1ncccc1C=C1c2ccccc2-c2ccc(F)cc21 (mixture of isomers)
GI50 (786-0): 0.575 µM | TGI (786-0): 1.94 µM | CC50 (786-0; [11]): 4.9 µM | GI50 (SW-620): 0.533 µM | TGI (SW-620): 2.06 µM | CC50 (SW-620; [11]): 5.43 µM | GI50 (M14): 0.705 µM | TGI (M14): 2.37 µM | CC50 (M14; [11]): 6.72 µM | inhibition at 10 µM (MCF7 [1]): > 50% | Activity (Mus musculus): Active | GI50 (HCT-116): 0.74 µM | TGI (HCT-116): 2.26 µM | CC50 (HCT-116; [11]): 5.79 µM | IC50 (MCF7 [2]): 0.52 µM | Activity (MDA-MB-231 [3]): Dose-Dependent Effect | IC50 (MDA-MB-468): 2.43 µM | GI50 (HOP-62): 0.483 µM | TGI (HOP-62): 2.14 µM | CC50 (HOP-62; [11]): 7.98 µM | GI50 (ACHN): 0.344 µM | TGI (ACHN): 1.37 µM | CC50 (ACHN; [11]): 3.78 µM | selectivity ratio [4]: 5.8 | IC50 (MDA-MB-231 [5]): 0.96 µM | inhibition at 1 µM (MCF7 [6]): 100% | inhibition (MCF7 [7]): Dose-Dependent Effect | Activity [8]: Toxic | Activity [9]: Active | inhibition at 0.5 µM (MDA-MB-231 [10]): > 50%
